Experiments:
[1] = biological target: T1, HiBit-BRG1 fusion protein (Homo sapiens, UniProt P51532); assay: HiBiT-BRG1 cell-based degradation assay (Nano-Glo HiBiT lytic detection, 24 h); details: HeLa cell line expressing HiBit-BRG1 and LgBit; for Dmax: read-out: BRG1 HiBit Degradation Maximum (%); for DC50: read-out: BRMG1 HiBit Degradation IC50
T1 construct: expressed in transfected cells
How it was run: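 Luminescence from HiBiT/LgBiT complementation after lytic detection reagent was read following 24 h compound exposure of HeLa cells stably carrying HiBiT-BRG1 plus LgBiT (5000 cells/well). Signal scaled to % degradation using DMSO-treated cells as 0% and cells given 2 μM known BRM/BRG1 degrader as 100%.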

[2] = biological target: T2, HiBit-BRM fusion protein (Homo sapiens, UniProt P51531); assay: HiBiT-BRM cell-based degradation assay (Nano-Glo HiBiT lytic detection, 24 h); details: HeLa cell line expressing HiBiT-BRM; for DC50: read-out: BRM HiBit Degradation IC50
T2 construct: expressed in transfected cells
T2 sequence (P51531 whole entry, the tested form may be a part): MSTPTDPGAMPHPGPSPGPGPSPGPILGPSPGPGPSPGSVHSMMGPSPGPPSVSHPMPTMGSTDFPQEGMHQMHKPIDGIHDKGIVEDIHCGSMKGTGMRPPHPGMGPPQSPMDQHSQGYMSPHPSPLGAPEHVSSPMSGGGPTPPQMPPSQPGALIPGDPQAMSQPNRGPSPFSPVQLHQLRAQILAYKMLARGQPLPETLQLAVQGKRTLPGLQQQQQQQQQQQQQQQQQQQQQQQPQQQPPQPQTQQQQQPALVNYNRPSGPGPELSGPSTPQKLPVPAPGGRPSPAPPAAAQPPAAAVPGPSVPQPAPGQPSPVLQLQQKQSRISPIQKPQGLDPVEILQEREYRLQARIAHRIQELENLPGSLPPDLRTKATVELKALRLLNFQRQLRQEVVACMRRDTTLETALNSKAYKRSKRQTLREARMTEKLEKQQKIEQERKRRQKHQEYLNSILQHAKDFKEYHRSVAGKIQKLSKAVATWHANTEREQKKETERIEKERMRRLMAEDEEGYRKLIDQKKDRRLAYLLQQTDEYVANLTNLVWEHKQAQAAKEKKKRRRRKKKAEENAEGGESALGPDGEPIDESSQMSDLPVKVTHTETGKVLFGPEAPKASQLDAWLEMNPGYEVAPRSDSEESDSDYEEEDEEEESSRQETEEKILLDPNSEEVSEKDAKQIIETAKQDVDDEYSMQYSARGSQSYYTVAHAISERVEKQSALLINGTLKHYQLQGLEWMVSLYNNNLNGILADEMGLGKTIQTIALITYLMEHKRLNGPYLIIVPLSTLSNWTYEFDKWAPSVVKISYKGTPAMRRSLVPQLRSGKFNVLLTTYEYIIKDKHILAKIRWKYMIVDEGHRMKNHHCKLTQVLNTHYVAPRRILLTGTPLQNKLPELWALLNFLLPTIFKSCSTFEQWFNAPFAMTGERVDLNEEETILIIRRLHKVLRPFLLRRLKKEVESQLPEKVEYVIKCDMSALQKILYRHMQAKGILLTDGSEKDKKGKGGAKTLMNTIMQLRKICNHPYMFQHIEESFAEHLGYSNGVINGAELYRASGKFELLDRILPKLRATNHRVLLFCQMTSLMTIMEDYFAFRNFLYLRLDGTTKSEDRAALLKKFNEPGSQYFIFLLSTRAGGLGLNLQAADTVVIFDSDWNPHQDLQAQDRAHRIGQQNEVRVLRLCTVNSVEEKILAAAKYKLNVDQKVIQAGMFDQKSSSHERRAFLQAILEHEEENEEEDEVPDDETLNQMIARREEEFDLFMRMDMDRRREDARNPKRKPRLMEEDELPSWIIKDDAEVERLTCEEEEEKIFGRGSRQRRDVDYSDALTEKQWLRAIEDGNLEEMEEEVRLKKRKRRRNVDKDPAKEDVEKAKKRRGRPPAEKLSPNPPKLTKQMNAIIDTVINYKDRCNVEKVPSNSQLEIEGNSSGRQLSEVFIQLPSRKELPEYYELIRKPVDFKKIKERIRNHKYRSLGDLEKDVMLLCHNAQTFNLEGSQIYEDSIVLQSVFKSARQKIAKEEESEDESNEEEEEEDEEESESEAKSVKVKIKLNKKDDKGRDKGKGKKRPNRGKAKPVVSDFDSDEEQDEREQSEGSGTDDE
How it was run: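 Luminescence from LgBiT complementation quantified remaining HiBiT-BRM in stably expressing HeLa cells after 24 h compound exposure (top final dose 30 μM, 3-fold, 10 points, duplicate). Degradation expressed as percent relative to DMSO and a 2 μM reference degrader.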

T1 sequence (P51532 whole entry, the tested form may be a part): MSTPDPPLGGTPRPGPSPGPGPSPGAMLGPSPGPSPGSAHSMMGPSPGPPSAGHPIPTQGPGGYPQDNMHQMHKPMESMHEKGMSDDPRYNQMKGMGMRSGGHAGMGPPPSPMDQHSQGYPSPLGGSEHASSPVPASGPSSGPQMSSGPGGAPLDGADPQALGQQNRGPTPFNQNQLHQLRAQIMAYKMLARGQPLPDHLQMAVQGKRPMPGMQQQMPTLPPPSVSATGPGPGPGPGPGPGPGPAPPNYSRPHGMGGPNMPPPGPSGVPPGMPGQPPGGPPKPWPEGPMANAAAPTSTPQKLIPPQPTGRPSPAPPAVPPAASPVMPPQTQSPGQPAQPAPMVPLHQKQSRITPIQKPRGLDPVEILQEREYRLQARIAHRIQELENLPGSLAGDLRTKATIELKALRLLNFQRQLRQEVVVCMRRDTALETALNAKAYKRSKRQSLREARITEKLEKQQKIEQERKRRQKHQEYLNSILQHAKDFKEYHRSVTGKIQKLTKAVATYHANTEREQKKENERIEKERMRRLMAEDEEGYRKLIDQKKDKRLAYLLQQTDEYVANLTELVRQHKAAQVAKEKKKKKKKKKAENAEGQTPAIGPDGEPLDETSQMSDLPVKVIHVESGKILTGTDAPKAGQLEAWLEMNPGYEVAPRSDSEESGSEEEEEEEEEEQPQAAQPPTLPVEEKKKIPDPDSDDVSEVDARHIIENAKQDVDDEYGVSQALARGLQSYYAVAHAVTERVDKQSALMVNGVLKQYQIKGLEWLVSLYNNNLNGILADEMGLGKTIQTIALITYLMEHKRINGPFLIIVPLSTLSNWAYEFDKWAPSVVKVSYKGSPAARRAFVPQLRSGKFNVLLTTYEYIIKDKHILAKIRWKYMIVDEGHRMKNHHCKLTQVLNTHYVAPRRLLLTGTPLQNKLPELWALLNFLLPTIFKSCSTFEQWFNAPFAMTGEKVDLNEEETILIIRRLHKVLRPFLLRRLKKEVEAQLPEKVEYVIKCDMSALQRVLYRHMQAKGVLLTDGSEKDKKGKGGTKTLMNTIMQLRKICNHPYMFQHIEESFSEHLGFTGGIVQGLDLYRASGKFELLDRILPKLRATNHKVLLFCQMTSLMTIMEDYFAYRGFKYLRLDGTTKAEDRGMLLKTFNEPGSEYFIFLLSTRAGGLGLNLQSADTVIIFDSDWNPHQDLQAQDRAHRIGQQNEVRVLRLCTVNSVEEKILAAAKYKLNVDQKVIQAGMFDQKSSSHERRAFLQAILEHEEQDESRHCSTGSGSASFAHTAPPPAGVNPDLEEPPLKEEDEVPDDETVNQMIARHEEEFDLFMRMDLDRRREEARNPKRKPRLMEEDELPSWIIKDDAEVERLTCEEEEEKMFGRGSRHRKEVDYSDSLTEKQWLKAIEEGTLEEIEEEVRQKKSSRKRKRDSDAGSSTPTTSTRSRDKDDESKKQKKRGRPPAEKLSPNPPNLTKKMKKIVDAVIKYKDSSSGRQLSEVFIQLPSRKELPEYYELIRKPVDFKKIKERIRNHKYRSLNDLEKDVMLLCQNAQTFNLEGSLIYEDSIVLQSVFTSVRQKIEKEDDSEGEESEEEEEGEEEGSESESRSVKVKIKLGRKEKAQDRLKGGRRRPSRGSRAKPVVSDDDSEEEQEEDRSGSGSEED

| Dmax [1] | DC50 [2] | DC50 [1] | Structure (SMILES) | BRM HiBit Degradation Maximum (%) [2] | BRG1 HiBit Degradation Maximum (%) [1] |
| --- | --- | --- | --- | --- | --- |
| < 50% |  |  | Cc1ncsc1-c1ccc([C@H](C)NC(=O)[C@@H]2C[C@@H](O)CN2C(=O)[C@@H](c2cc(OCCN3C[C@@H]4[C@H](C3)[C@H]4n3c(C)cc4nnc(-c5ccccc5O)cc43)no2)C(C)C)cc1 [Compound 33, (2S,4R)-4-hydroxy-1-[(2R)-2-(3-{2-[(1R,5S,6S)-6-[3-(2-hydroxyphenyl)-6-methylpyrrolo[3,2-c]pyridazin-5-yl]-3-azabicyclo[3.1.0]hexan-3-yl]ethoxy}-1,2-oxazol-5-yl)-3-methylbutanoyl]-N-[(1S)-1-[4-(4-methyl-1,3-thiazol-5-yl)phenyl]ethyl]pyrrolidine-2-carboxamide] | C (“C” indicates maximum degradation <50%) |  |
| < 50% | < 10 nM |  | Cc1ncsc1-c1ccc([C@H](C)NC(=O)[C@@H]2C[C@@H](O)CN2C(=O)[C@@H](c2cc(-c3cnc(N4CC[C@H](c5cc6nnc(-c7ccccc7O)cc6n5C5CC5)C4)nc3)no2)C(C)C)cc1 [Compound 34, (2S,4R)-1-((R)-2-(3-(2-((S)-3-(5-cyclopropyl-3-(2-hydroxyphenyl)-5H-pyrrolo[3,2-c]pyridazin-6-yl)pyrrolidin-1-yl)pyrimidin-5-yl)isoxazol-5-yl)-3-methylbutanoyl)-4-hydroxy-N—((S)-1-(4-(4-methylthiazol-5-yl)phenyl)ethyl)pyrrolidine-2-carboxamide] | A (“A” indicates maximum degradation ≥75%) |  |
| < 50% | > 100 nM |  | Cc1ncsc1-c1ccc([C@H](C)NC(=O)[C@@H]2C[C@@H](O)CN2C(=O)[C@H](c2cc(-c3cnc(N4CC[C@H](c5cc6nnc(-c7ccccc7O)cc6n5C5CC5)C4)nc3)no2)C(C)C)cc1 [Compound 35, (2S,4R)-1-((S)-2-(3-(2-((S)-3-(5-cyclopropyl-3-(2-hydroxyphenyl)-5H-pyrrolo[3,2-c]pyridazin-6-yl)pyrrolidin-1-yl)pyrimidin-5-yl)isoxazol-5-yl)-3-methylbutanoyl)-4-hydroxy-N—((S)-1-(4-(4-methylthiazol-5-yl)phenyl)ethyl)pyrrolidine-2-carboxamide] | A (“A” indicates maximum degradation ≥75%) |  |
| > 75% | < 10 nM | < 10 nM | Cc1ncsc1-c1ccc([C@H](C)NC(=O)[C@@H]2C[C@@H](O)CN2C(=O)[C@@H](c2cc(-c3cnc(N4CC[C@@H](c5cc6nnc(-c7ccccc7O)cc6n5C5CC5)C4)nc3)no2)C(C)C)cc1 [Compound 36, (2S,4R)-1-((R)-2-(3-(2-((R)-3-(5-cyclopropyl-3-(2-hydroxyphenyl)-5H-pyrrolo[3,2-c]pyridazin-6-yl)pyrrolidin-1-yl)pyrimidin-5-yl)isoxazol-5-yl)-3-methylbutanoyl)-4-hydroxy-N—((S)-1-(4-(4-methylthiazol-5-yl)phenyl)ethyl)pyrrolidine-2-carboxamide] | A (“A” indicates maximum degradation ≥75%) |  |
| < 50% | > 10 nM |  | Cc1ncsc1-c1ccc([C@H](C)NC(=O)[C@@H]2C[C@@H](O)CN2C(=O)[C@H](c2cc(-c3cnc(N4CC[C@@H](c5cc6nnc(-c7ccccc7O)cc6n5C5CC5)C4)nc3)no2)C(C)C)cc1 [Compound 37, (2S,4R)-1-((S)-2-(3-(2-((R)-3-(5-cyclopropyl-3-(2-hydroxyphenyl)-5H-pyrrolo[3,2-c]pyridazin-6-yl)pyrrolidin-1-yl)pyrimidin-5-yl)isoxazol-5-yl)-3-methylbutanoyl)-4-hydroxy-N—((S)-1-(4-(4-methylthiazol-5-yl)phenyl)ethyl)pyrrolidine-2-carboxamide] | A (“A” indicates maximum degradation ≥75%) |  |
| < 50% |  |  | Cc1ncsc1-c1ccc([C@H](C)NC(=O)[C@@H]2C[C@@H](O)CN2C(=O)[C@H](c2cc(-c3ccnc(N4CC[C@H](c5cc6nnc(-c7ccccc7O)cc6n5C5CC5)C4)n3)no2)C(C)C)cc1 [Compound 40] | C (“C” indicates maximum degradation <50%) |  |
| < 50% | > 10 nM |  | Cc1ncsc1-c1ccc([C@H](C)NC(=O)[C@@H]2C[C@@H](O)CN2C(=O)[C@@H](c2cc(-c3ccnc(N4CC[C@H](c5cc6nnc(-c7ccccc7O)cc6n5C5CC5)C4)n3)no2)C(C)C)cc1 [Compound 41] | A (“A” indicates maximum degradation ≥75%) |  |
| < 50% | > 10 nM |  | Cc1ncsc1-c1ccc([C@H](C)NC(=O)[C@@H]2C[C@@H](O)CN2C(=O)[C@H](c2cc(-c3cnc(N4CCC(c5cc6nnc(-c7ccccc7O)cc6n5C5(C)CC5)CC4)nc3)no2)C(C)C)cc1 [Compound 42] | B (“B” indicates maximum degradation ≥50%) |  |
| < 50% | < 10 nM |  | Cc1ncsc1-c1ccc([C@H](C)NC(=O)[C@@H]2C[C@@H](O)CN2C(=O)[C@@H](c2cc(-c3cnc(N4CCC(c5cc6nnc(-c7ccccc7O)cc6n5C5(C)CC5)CC4)nc3)no2)C(C)C)cc1 [Compound 43] | A (“A” indicates maximum degradation ≥75%) |  |
| < 50% | < 10 nM |  | Cc1ncsc1-c1ccc([C@H](C)NC(=O)[C@@H]2C[C@@H](O)CN2C(=O)[C@H](c2cc(-c3cnc(N4CCC(c5cc6nnc(-c7ccccc7O)cc6n5C(C)C)CC4)nc3)no2)C(C)C)cc1 [Compound 44] | B (“B” indicates maximum degradation ≥50%) |  |
| > 75% | < 10 nM | < 10 nM | Cc1ncsc1-c1ccc([C@H](C)NC(=O)[C@@H]2C[C@@H](O)CN2C(=O)[C@@H](c2cc(-c3cnc(N4CCC(c5cc6nnc(-c7ccccc7O)cc6n5C(C)C)CC4)nc3)no2)C(C)C)cc1 [Compound 45] | A (“A” indicates maximum degradation ≥75%) |  |
| < 50% |  |  | Cc1ncsc1-c1ccc([C@H](C)NC(=O)[C@@H]2C[C@@H](O)CN2C(=O)[C@@H](c2cc(-c3cnc(N4CCC(c5cc6nnc(-c7ccccc7O)cc6n5C5CCC5)CC4)nc3)no2)C(C)C)cc1 [Compound 46] | C (“C” indicates maximum degradation <50%) |  |
|  | < 10 nM |  | Cc1ncsc1-c1ccc([C@H](C)NC(=O)[C@@H]2C[C@@H](O)CN2C(=O)[C@@H](c2cc(-c3cnc(N4CCC(c5cc6nnc(-c7ccccc7O)cc6n5C5CCC5)CC4)nc3)no2)C(C)C)cc1 [Compound 47] | A (“A” indicates maximum degradation ≥75%) | C (“C” indicates maximum degradation <50%) |
| < 50% | > 10 nM |  | Cc1ncsc1-c1ccc(CNC(=O)[C@@H]2C[C@@H](O)CN2C(=O)[C@@H](c2cc(N3CC4(CC(c5cc6nnc(-c7ccccc7O)cc6n5C5CCC5)C4)C3)no2)C(C)C)cc1 [Compound 48, (2S,4R)-1-((R)-2-(3-(6-(5-cyclobutyl-3-(2-hydroxyphenyl)-5H-pyrrolo[3,2-c]pyridazin-6-yl)-2-azaspiro[3.3]heptan-2-yl)isoxazol-5-yl)-3-methylbutanoyl)-4-hydroxy-N-(4-(4-methylthiazol-5-yl)benzyl)pyrrolidine-2-carboxamide] | A (“A” indicates maximum degradation ≥75%) |  |
| < 50% | > 10 nM |  | CC(C)C(C(=O)N1C[C@H](O)C[C@H]1C(=O)N[C@@H](C)c1ccccc1)c1cc(N2CC3(CC(c4cc5nnc(-c6ccccc6O)cc5n4C4CCC4)C3)C2)no1 (stereo partly drawn) [Compound 49, (2S,4R)-1-[2-(3-{6-[5-cyclobutyl-3-(2-hydroxyphenyl)pyrrolo[3,2-c]pyridazin-6-yl]-2-azaspiro[3.3]heptan-2-yl}-1,2-oxazol-5-yl)-3-methylbutanoyl]-4-hydroxy-N-[(1S)-1-phenylethyl]pyrrolidine-2-carboxamide] | A (“A” indicates maximum degradation ≥75%) |  |
| < 50% | > 10 nM |  | CC(C)C(C(=O)N1C[C@H](O)C[C@H]1C(=O)NCc1ccc(F)cc1)c1cc(N2CC3(CC(c4cc5nnc(-c6ccccc6O)cc5n4C4CCC4)C3)C2)no1 (stereo partly drawn) [Compound 50, (2S,4R)-1-(2-(3-(6-(5-cyclobutyl-3-(2-hydroxyphenyl)-5H-pyrrolo[3,2-c]pyridazin-6-yl)-2-azaspiro[3.3]heptan-2-yl)isoxazol-5-yl)-3-methylbutanoyl)-N-(4-fluorobenzyl)-4-hydroxypyrrolidine-2-carboxamide] | A (“A” indicates maximum degradation ≥75%) |  |
| < 50% | > 10 nM |  | CC[C@H](C)NC(=O)[C@@H]1C[C@@H](O)CN1C(=O)C(c1cc(N2CC3(CC(c4cc5nnc(-c6ccccc6O)cc5n4C4CCC4)C3)C2)no1)C(C)C (stereo partly drawn) [Compound 51, (2S,4R)-N-((S)-sec-butyl)-1-(2-(3-(6-(5-cyclobutyl-3-(2-hydroxyphenyl)-5H-pyrrolo[3,2-c]pyridazin-6-yl)-2-azaspiro[3.3]heptan-2-yl)isoxazol-5-yl)-3-methylbutanoyl)-4-hydroxypyrrolidine-2-carboxamide] | A (“A” indicates maximum degradation ≥75%) |  |
| < 50% | < 10 nM |  | C#Cc1ccc(CNC(=O)[C@@H]2C[C@@H](O)CN2C(=O)C(c2cc(N3CC4(CC(c5cc6nnc(-c7ccccc7O)cc6n5C5CCC5)C4)C3)no2)C(C)C)c(OCCCOC)c1 (stereo partly drawn) [Compound 52, (2S,4R)-1-(2-(3-(6-(5-cyclobutyl-3-(2-hydroxyphenyl)-5H-pyrrolo[3,2-c]pyridazin-6-yl)-2-azaspiro[3.3]heptan-2-yl)isoxazol-5-yl)-3-methylbutanoyl)-N-(4-ethynyl-2-(3-methoxypropoxy)benzyl)-4-hydroxypyrrolidine-2-carboxamide] | A (“A” indicates maximum degradation ≥75%) |  |

From patent US20250302832A1, “PYRAZINE DERIVATIVES AND USES THEREOF” (FOGHORN THERAPEUTICS INC., priority 2022, published 2025)
